Key:
[1] = system: HL60, K562, and U937 cells; experiment: Apoptosis induction in leukemia cells (AO/EB microscopy, Annexin-V/PI flow cytometry); type: cell-based, human; conditions: 0.5-4 μM, 24 hours; AO/EB staining and Annexin-V/PI flow cytometry
Protocol: Apoptotic cells were defined using morphological criteria and fluorescence-activated cell sorting (FACS) after staining with Annexin V-FITC. For morphologic analysis, 1 μl of stock solution containing 100 μg/ml AO and 100 μg/ml EB was added to 25 μl cells suspension. The apoptitic cells and apoptotic bodies were analyzed with the aid of a fluorescence microscopy. The percentage of apoptotic cells was calculated after counting total 300 cells. For FACS analysis, […] to 5×10^6 cells were washed with PBS and then labeled with Annexin V-FICS and propidium iodide (PI) in medium-binding reagent according to the Annexin V-FITC apoptosis detection kit instruction provided by the manufacturer. Fluorescent signals of FITC and PI were detected, respectively, at 518 nm and at 620 nm on FACSCAN (Becton Dickinson, San Jose, Calif.). […] The data was analyzed by the CellQuest program (Becton Dickinson). For each analysis, 10,000 cells events were recorded.
The percentage of apoptotic cells was determined with the aid of a fluoresence microscope after staining with acridine orange and ethidium bromide (See FIG. 2A). […] The percentage of apoptotic cells was determined by flow cytometry using Annexin-V and PI staining. […] (See FIGS. 2a and 2b)

cell cycle = experiment: Cell cycle analysis of DNA contents by flow cytometry; type: cell-based
Protocol: Cells were pelleted by centrifugation, and washed twice with PBS, fixed with 70% (v/v) cold ethanol (−20° C.), and stored at 4° C. for at least 24 hours. The cells were washed in PBS. Cell pellets were stained with PI/RNase staining solution. The cell suspension was incubated in the dark at room temperature for 30 min. DNA content was determined using a FACSCalibur flow cytometry (Becton Dickinson, Mount View, Calif.). Percentages of cells in Sub-G1, G1, S and G2/M stages of the cell cycle were determined with DNA histogram-fitting program (Becton Dickinson). A minimum of 10,000 events per sample was recorded.
Cells were cultured for the indicated lengths of time before being processed for analyses of DNA contents by flow cytometry. Numerical values in a panel represent gated cell population with sub-G1 DNA contents. The most significant changes were observed after 24 hours of treatment.

[2] = system: Hela cervix carcinoma cells; experiment: MTT cytotoxicity with or without nucleoside transport inhibitor dipyridamole; type: cell-based
Protocol: Dipyridamole was used as an inhibitor of the equilibrative nucleoside transporters hENT1 and hENT2. […] The cells were pre-incubated for 24 hours. Dipyridamole (10 μM) was added to the cells 30 minutes prior to the addition of the test compounds. […] Six wells were used per test concentration. The cells were incubated with test compound for 72 hours.

[3] = Metabolic stability in pooled human plasma at 37° C.; type: in vitro ADME
Protocol: The mixture was incubated in a shaking water batch at 37° C. Aliquots (100 μl) of the incubation solutions were withdrawn in triplicate (n=3) at the designed incubation period (0, 15, 30, 60 and 120 minutes), and plasma protein was immediately precipitated using acetonitrile containing 0.1% formic acid (300 μl). […] After centrifugation, the supernatant was directly introduced for LC-MS-MS analysis.

**Q.** For `CCCCCCCC/C=C/CCCCCCCC(=O)OC[C@H]1O[C@@H](n2cnc(N)nc2=O)[C@H](O)[C@@H]1O` [CP, 5-azacytidine 5′-elaidate], which “number of apoptotic cells” value [1] is on record?
**A.** concentration-dependent increase in the number of apoptotic cells

**Q.** And the “% cell G1” value (cell cycle; 24 hour, dose 0.5 μM)?
**A.** 43.66%

**Q.** What about the “% cell G2/M” value (cell cycle; 24 hour, dose 0.5 μM) of the same compound?
**A.** 11.05%

**Q.** What about the “% cell S” value (cell cycle; 24 hour, dose 0.5 μM) of the same compound?
**A.** 28.15%

**Q.** What about the “% cell Sub G1” value (cell cycle; 24 hour, dose 0.5 μM) of the same compound?
**A.** 9.41%

**Q.** And the “% cell G1” value (cell cycle; 24 hour, dose 1 μM)?
**A.** 36.17%

**Q.** And the “% cell G2/M” value (cell cycle; 24 hour, dose 1 μM)?
**A.** 8.82%

**Q.** And the “% cell S” value (cell cycle; 24 hour, dose 1 μM)?
**A.** 18.98%

**Q.** What about the “% cell Sub G1” value (cell cycle; 24 hour, dose 1 μM) of the same compound?
**A.** 21.02%

**Q.** What about the “% cell G1” value (cell cycle; 24 hour, dose 2 μM) of the same compound?
**A.** 23.45%

**Q.** And the “% cell G2/M” value (cell cycle; 24 hour, dose 2 μM)?
**A.** 2.64%

**Q.** What about the “% cell S” value (cell cycle; 24 hour, dose 2 μM) of the same compound?
**A.** 9.14%

**Q.** And the “% cell Sub G1” value (cell cycle; 24 hour, dose 2 μM, listed as 5-azacytidine 5′-elaidate)?
**A.** 33.6%

**Q.** What about the “% cell Sub G1” value (cell cycle; 24 hour, dose 2 μM, listed as cp) of the same compound?
**A.** 33.59%

**Q.** What about the “% cell G1” value (cell cycle; 48 hour, dose 0.5 μM) of the same compound?
**A.** 34.79%

**Q.** And the “% cell G2/M” value (cell cycle; 48 hour, dose 0.5 μM)?
**A.** 2.53%

**Q.** And the “% cell S” value (cell cycle; 48 hour, dose 0.5 μM)?
**A.** 42.96%

**Q.** What about the “% cell Sub G1” value (cell cycle; 48 hour, dose 0.5 μM) of the same compound?
**A.** 15.14%

**Q.** And the “% cell G1” value (cell cycle; 48 hour, dose 1 μM)?
**A.** 28.07%

**Q.** What about the “% cell G2/M” value (cell cycle; 48 hour, dose 1 μM) of the same compound?
**A.** 17.91%

**Q.** What about the “% cell S” value (cell cycle; 48 hour, dose 1 μM) of the same compound?
**A.** 30.06%

**Q.** What about the “% cell Sub G1” value (cell cycle; 48 hour, dose 1 μM) of the same compound?
**A.** 14.34%

**Q.** What about the “% cell G1” value (cell cycle; 48 hour, dose 2 μM) of the same compound?
**A.** 22.51%

**Q.** And the “% cell G2/M” value (cell cycle; 48 hour, dose 2 μM)?
**A.** 7.78%

**Q.** And the “% cell S” value (cell cycle; 48 hour, dose 2 μM)?
**A.** 15.62%

**Q.** And the “% cell Sub G1” value (cell cycle; 48 hour, dose 2 μM)?
**A.** 24.34%

**Q.** And the “% cell G1” value (cell cycle; 72 hour, dose 0.5 μM)?
**A.** 38.72%

**Q.** What about the “% cell G2/M” value (cell cycle; 72 hour, dose 0.5 μM) of the same compound?
**A.** 18.82%

**Q.** And the “% cell S” value (cell cycle; 72 hour, dose 0.5 μM)?
**A.** 29.18%

**Q.** And the “% cell Sub G1” value (cell cycle; 72 hour, dose 0.5 μM)?
**A.** 10.54%

**Q.** What about the “% cell G1” value (cell cycle; 72 hour, dose 1 μM) of the same compound?
**A.** 40.67%

**Q.** And the “% cell G2/M” value (cell cycle; 72 hour, dose 1 μM)?
**A.** 18.26%

**Q.** And the “% cell S” value (cell cycle; 72 hour, dose 1 μM)?
**A.** 28.77%

**Q.** And the “% cell Sub G1” value (cell cycle; 72 hour, dose 1 μM)?
**A.** 10.75%

**Q.** What about the “cytotoxic activity increased when hENT1 and hENT2 blocked by dipyridamole” value ([2]; Hela, with vs without dipyridamole) of the same compound?
**A.** 50 fold

**Q.** And the IC50 ([2]; Homo sapiens, HeLa, 72 h, Hela with dipyridamole (10 μM), MTT)?
**A.** 230 nM

**Q.** What about the half-life at 0.1 μM ([3]; 0.1 μM) of the same compound?
**A.** 2.68 h

**Q.** What about the “% Remaining of initial (mean ± SD, n = 3)” value ([3]; 0.1 μM, 0 min) of the same compound?
**A.** 100%

**Q.** What about the “% Remaining of initial (mean ± SD, n = 3)” value ([3]; 0.1 μM, 15 min) of the same compound?
**A.** 95.8 ± 3.0%

**Q.** What about the “% Remaining of initial (mean ± SD, n = 3)” value ([3]; 0.1 μM, 30 min) of the same compound?
**A.** 95.0 ± 2.0%

**Q.** What about the “% Remaining of initial (mean ± SD, n = 3)” value ([3]; 0.1 μM, 60 min) of the same compound?
**A.** 92.1 ± 3.4%

**Q.** What about the “% Remaining of initial (mean ± SD, n = 3)” value ([3]; 0.1 μM, 120 min) of the same compound?
**A.** 59.0 ± 1.6%

**Q.** What about the half-life at 1 μM ([3]; 1 μM) of the same compound?
**A.** 2.17 h

**Q.** What about the “% Remaining of initial (mean ± SD, n = 3)” value ([3]; 1 μM, 0 min) of the same compound?
**A.** 100%

**Q.** And the “% Remaining of initial (mean ± SD, n = 3)” value ([3]; 1 μM, 15 min)?
**A.** 93.3 ± 1.1%

**Q.** And the “% Remaining of initial (mean ± SD, n = 3)” value ([3]; 1 μM, 30 min)?
**A.** 88.9 ± 1.1%

**Q.** And the “% Remaining of initial (mean ± SD, n = 3)” value ([3]; 1 μM, 60 min)?
**A.** 79.8 ± 2.6%

**Q.** What about the “% Remaining of initial (mean ± SD, n = 3)” value ([3]; 1 μM, 120 min) of the same compound?
**A.** 52.5 ± 3.1%

**Q.** And the half-life at 3 μM ([3]; 3 μM)?
**A.** 2.35 h

**Q.** What about the “% Remaining of initial (mean ± SD, n = 3)” value ([3]; 3 μM, 0 min) of the same compound?
**A.** 100%

**Q.** And the “% Remaining of initial (mean ± SD, n = 3)” value ([3]; 3 μM, 15 min)?
**A.** 99.0 ± 3.5%

**Q.** And the “% Remaining of initial (mean ± SD, n = 3)” value ([3]; 3 μM, 30 min)?
**A.** 96.0 ± 3.0%

**Q.** And the “% Remaining of initial (mean ± SD, n = 3)” value ([3]; 3 μM, 60 min)?
**A.** 85.4 ± 3.4%

**Q.** And the “% Remaining of initial (mean ± SD, n = 3)” value ([3]; 3 μM, 120 min)?
**A.** 56.6 ± 1.6%

**Q.** And the half-life at 10 μM ([3]; 10 μM)?
**A.** 1.43 h

**Q.** What about the “% Remaining of initial (mean ± SD, n = 3)” value ([3]; 10 μM, 0 min) of the same compound?
**A.** 100%

**Q.** What about the “% Remaining of initial (mean ± SD, n = 3)” value ([3]; 10 μM, 15 min) of the same compound?
**A.** 96.0 ± 2.0%

**Q.** What about the “% Remaining of initial (mean ± SD, n = 3)” value ([3]; 10 μM, 30 min) of the same compound?
**A.** 93.1 ± 0.0%

**Q.** What about the “% Remaining of initial (mean ± SD, n = 3)” value ([3]; 10 μM, 60 min) of the same compound?
**A.** 77.1 ± 3.1%

**Q.** And the “% Remaining of initial (mean ± SD, n = 3)” value ([3]; 10 μM, 120 min)?
**A.** 39.1 ± 1.7%

**Q.** And the half-life at 30 μM ([3]; 30 μM)?
**A.** 1.82 h

**Q.** What about the “% Remaining of initial (mean ± SD, n = 3)” value ([3]; 30 μM, 0 min) of the same compound?
**A.** 100%

**Q.** What about the “% Remaining of initial (mean ± SD, n = 3)” value ([3]; 30 μM, 15 min) of the same compound?
**A.** 97.7 ± 3.5%

**Q.** What about the “% Remaining of initial (mean ± SD, n = 3)” value ([3]; 30 μM, 30 min) of the same compound?
**A.** 90.4 ± 2.6%

**Q.** What about the “% Remaining of initial (mean ± SD, n = 3)” value ([3]; 30 μM, 60 min) of the same compound?
**A.** 78.5 ± 1.7%

**Q.** And the “% Remaining of initial (mean ± SD, n = 3)” value ([3]; 30 μM, 120 min)?
**A.** 47.4 ± 1.1%
